Counter-ions that a name gives are not always drawn. Like-named read-outs stand apart in the source and are kept apart here.
Legend:
[1] = Solubility model Example 4: visual inspection for crystals on sand paper in calcium lactate solution; type: physicochemical; settings: 1.5% additive in 5.31 g calcium lactate/100 g solution, pH 6.6, 14 days at 7° C.
Experimental: (§1) Demineralized water (60° C.) was then added to the flask to obtain a final weight of 100 g and the flask was stirred to dissolve the calcium lactate powder. Subsequently a piece of 1.5×3 cm sand paper was added to the flask to provide a nucleation site for calcium lactate crystal formation and the flask was sealed with a rubber stopper.
(§2) After preparation a sample of each solution was collected.
(§3) Subsequently all solutions were stored at 7° C. for 14 days. After 14 days the flasks were visually inspected for the presence of crystals on the sand paper and the solutions were filtered at 7° C. through filter paper (Whatman 4; Whatman International Ltd., Maidstone, England).

[2] = Solubility model Example 4: calcium analysis by Atomic Absorption Spectroscopy; settings: for Calcium analysis After Storage: 1.5% additive, 14 days at 7° C., filtered supernatant
Experimental: as §1, §2, §3
(§4) The supernatant and the sample collected prior to storage were analyzed for lactic acid using High Performance Liquid Chromatography (HPLC) and for calcium content by Atomic Absorption Spectroscopy (AAS), providing the results reported below in Tables II and III.

[3] = Solubility model Example 4: lactate analysis by HPLC; settings: for Lactate analysis After Storage: 1.5% additive, 14 days at 7° C., filtered supernatant
Experimental: as §1, §2, §3, §4

[4] = Solubility model Example 3: filtrate analysis of calcium lactate solutions with sodium gluconate; type: physicochemical; settings: 48 hours at about 40° F., cold filtered
Source text: A test was run to determine the ability of ionic gluconate provided by sodium gluconate in an aqueous solution to bind with lactate over time, to thereby model the believed primary phenomenon resulting in reduced formation of calcium lactate crystal. In each sample of the model, 14.1 g of calcium lactate pentahydrate (CH3CHOHCOO)2 Ca.5H2O) was used to provide 10 g of calcium lactate (1.83 g calcium ion, 8.17 g lactate ion). Different amounts of sodium gluconate (NaC6H11O7), amounts shown in Table I below) were combined with the calcium lactate pentahydrate and diluted to 100 ml with water. The samples were prepared at room temperature and each mixed well. The samples were then refrigerated at about 40° F. for 48 hours, with each sample being mixed several times during the 48 hour holding period. After the holding period, the samples were cold filtered (40° F.) and the filtrate analyzed for lactate, gluconate and calcium concentrations.

presence of crystals on the sand paper (visual inspection) [1] | Calcium analysis Initial Concentration ([2]; 0 days, 1.5 %, pH 6.6) [%] | Calcium analysis After Storage [2] [%] | Lactate analysis Initial Concentration ([3]; 0 days, 1.5 %, pH 6.6) [%] | Lactate analysis After Storage [3] [%] | Calcium analysis Initial Concentration [2] [%] | Lactate analysis Initial Concentration [3] [%] | Compound | FILTRATE RESULTS C6H11O7(%) ([4]; 5 g NaC6H11O7 added to 14.1 g calcium lactate pentahydrate in 100 ml) | FILTRATE RESULTS C6H11O7(%) ([4]; 10 g NaC6H11O7 added to 14.1 g calcium lactate pentahydrate in 100 ml) | FILTRATE RESULTS C6H11O7(%) ([4]; 15 g NaC6H11O7 added to 14.1 g calcium lactate pentahydrate in 100 ml) | FILTRATE RESULTS C6H11O7(%) ([4]; 20 g NaC6H11O7 added to 14.1 g calcium lactate pentahydrate in 100 ml) | FILTRATE RESULTS C6H11O7(%) ([4]; 25 g NaC6H11O7 added to 14.1 g calcium lactate pentahydrate in 100 ml)
no crystals were visually observed | 1.07 | 1.06 | 4.43 | 4.47 |  |  | O=C(O)CC(O)C(=O)O (stereo not drawn) [Sodium malate, malic acid disodium salt] |  |  |  |  | 
no crystals were visually observed |  | 1.04 |  | 4.33 | 1.05 | 4.33 | O=C(O)[C@H](O)[C@@H](O)[C@H](O[C@@H]1O[C@H](CO)[C@H](O)[C@H](O)[C@H]1O)[C@H](O)CO [Sodium lactobionate, lactobionic acid] |  |  |  |  | 

Compound | presence of crystals on the sand paper (visual inspection) [1] | Calcium analysis Initial Concentration ([2]; 0 days, 1.5 %, pH 6.6) [%] | Calcium analysis After Storage [2] [%] | Lactate analysis Initial Concentration ([3]; 0 days, 1.5 %, pH 6.6) [%] | Lactate analysis After Storage [3] [%] | Calcium analysis Initial Concentration [2] [%] | Lactate analysis Initial Concentration [3] [%] | FILTRATE RESULTS C6H11O7(%) ([4]; 5 g NaC6H11O7 added to 14.1 g calcium lactate pentahydrate in 100 ml) | FILTRATE RESULTS C6H11O7(%) ([4]; 10 g NaC6H11O7 added to 14.1 g calcium lactate pentahydrate in 100 ml) | FILTRATE RESULTS C6H11O7(%) ([4]; 15 g NaC6H11O7 added to 14.1 g calcium lactate pentahydrate in 100 ml) | FILTRATE RESULTS C6H11O7(%) ([4]; 20 g NaC6H11O7 added to 14.1 g calcium lactate pentahydrate in 100 ml) | FILTRATE RESULTS C6H11O7(%) ([4]; 25 g NaC6H11O7 added to 14.1 g calcium lactate pentahydrate in 100 ml)
O=C([O-])[C@H](O)[C@@H](O)[C@H](O)[C@H](O)CO.[Na+] [Sodium gluconate, sodium gluconate] | no crystals were visually observed |  | 1.08 |  | 4.41 |  |  | 2.97 | 7.55 | 11.15 | 14.21 | 16.61

Reference: patent US7771761B2, “Cheese with calcium lactate crystal inhibitor” (Regents of The University of Minnesota, priority 2005, dated 2010)
